Measured values from US20150051278A1, “METHOD OF EXTERMINATING HARMFUL INSECT” (KAO CORPORATION, priority 2012, published 2015).

Experiments:
Type in all cases: in vivo
Kanzawa spider mite = assay: Acaricidal test; conditions: Kanzawa spider mite on kidney bean, 3 days after spraying
Method: A kidney bean was grown in a 12 cm pot until to be a 5-leaf stage. Thirty individuals of Kanzawa spider mite per one plant were implanted for three repetitions. To 1 L of water, the insecticide was mixed such that the concentration of each of the compounds at the time of spraying becomes the amount indicated in Table 4 and Table 6, thereby preparing the spray liquid of insecticide. This spray liquid was sprayed on the leaf surface of the kidney bean attached with Kanzawa spider mites in the application amount indicated in Table 4 and Table 6. After air drying, the kidney bean sprayed with the spray liquid was covered with a wire gauze cylinder. Three days later, the number of surviving mites was measured, and the mite killing rate was calculated by the following equation. It means that the effect of agricultural chemical (acaricidal effect) is high as the value of the mite killing rate is high. Mite killing rate (%)=(the number of surviving mites in non-treated area−the number of surviving mites in treated area)/the number of surviving mites in non-treated area×100

planthopper = assay: Insecticidal test I; conditions: planthopper on rice seedling, 3 days after spraying
Method: A seedling of rice plant was grown in a 12 cm pot until the plant height reaches 15 cm. Ten individuals of planthopper, which had passed 3 to 5 days after emergence, were applied per one rice plant. The rice plant was trial-cultured for three repetitions. With 1 L of water, an insecticide was mixed in such an amount that the concentration of each of the compounds at the time of spraying was the amount indicated in Table 4, thereby preparing the spray liquid of insecticide. This spray liquid was sprayed on the leaf surface of the seedling of rice plant attached with planthoppers in the application amount indicated in Table 4. After air drying, the seedling of rice plant sprayed with the spray liquid was covered with a wire gauze cylinder. Three days later, the number of surviving insects was measured, and the insect killing rate (indicated as the “insect killing rate I” in Table 4) was calculated by the following equation. It means that the effect of agricultural chemical (insecticidal effect) is high as the value of the insect killing rate is high.
Insect killing rate (%)=(the number of surviving insects in non-treated area−the number of surviving insects in treated area)/the number of surviving insects in non-treated area×100

cotton aphid = assay: Insecticidal test II; conditions: cotton aphid on cabbage leaf, 1 day after spraying
Method: A cabbage seedling was grown in a 12 cm pot until to be a ten-leaf stage. The leaf of cabbage was cut and placed in a petri dish with a diameter of 9 cm, and 15 individuals of cotton aphid were trial cultured for three repetitions. With 1 L of water, the insecticide was mixed in such an amount that the concentration of each of the compounds at the time of spraying was the amount indicated in Table 4, thereby preparing the spray liquid of insecticide. This spray liquid was sprayed to the leaf surface of the cabbage attached with cotton aphids in the application amount indicated in Table 4. After air drying, the petri dish was covered with a lid, and an oxygen permeable seal was sealed around the petri dish so as to prevent the escape of the aphid therefrom. One day later, the number of surviving insects was measured, and the insect killing rate (indicated as the “insect killing rate II” in Table 4) was calculated by the following equation. It means that the effect of agricultural chemical (insecticidal effect) is high as the value of the insect killing rate is high. Insect killing rate (%)=(the number of surviving insects in non-treated area−the number of surviving insects in treated area)/the number of surviving insects in non-treated area×100

[1] = application amount 100 L/10 a, (A)+(B) concentration 1000 ppm

Substance | Mite killing rate (Kanzawa spider mite; [1]) | Insect killing rate I (planthopper; [1]) | Insect killing rate II (cotton aphid; [1]) | Mite killing rate (Kanzawa spider mite; 100 L/10 a, 2000 ppm) | Insect killing rate I (planthopper; 100 L/10 a, 2000 ppm) | Insect killing rate II (cotton aphid; 100 L/10 a, 2000 ppm)
Monocapric acid monoglycerine [compound 7] | 40% | 46% | 57% | – | – | –
Octyl alcohol [compound 22] | – | – | – | 22% | 24% | 34%
